Where two headings read alike, the source gives them in different places.
Columns and labels:
p38g MAPK = p38g MAPK (Homo sapiens (Human), UniProt P53778); experiment: Dundee profiling
EGFR = EGFR (Homo sapiens (Human), UniProt P00533); experiment: KinomeScan; type: binding; settings: 1 uM
ULK1 = ULK1 (Homo sapiens (Human), UniProt O75385); experiment: KinomeScan; type: binding; settings: 1 uM
EGFR (G719C) = EGFR (G719C) (Homo sapiens (Human), UniProt P00533, G719C); experiment: KinomeScan; type: binding; settings: 1 uM
p38a MAPK = p38a MAPK (Homo sapiens (Human), UniProt Q16539); experiment: Dundee profiling
PKA = PKA (Homo sapiens (Human), UniProt P17612); experiment: Dundee profiling
DDR2 = DDR2 (Homo sapiens (Human), UniProt Q16832); experiment: Dundee profiling
MAP4K3 = MAP4K3 (Homo sapiens (Human), UniProt Q8IVH8); experiment: Dundee profiling
JNK3 = JNK3 (Homo sapiens (Human), UniProt P53779); experiment: Dundee profiling
CK1δ = CK1δ (Homo sapiens (Human), UniProt P48730); experiment: Dundee profiling
CSNK1G2 = CSNK1G2 (Homo sapiens (Human), UniProt P78368); experiment: KinomeScan; type: binding; settings: 1 uM
PKBa = PKBa (Homo sapiens (Human), UniProt P31749); experiment: Dundee profiling
DYRK1A = DYRK1A (Homo sapiens (Human), UniProt Q13627); experiment: Dundee profiling
HIPK2 = HIPK2 (Homo sapiens (Human), UniProt Q9H2X6); experiment: Dundee profiling
PRAK = PRAK (Homo sapiens (Human), UniProt Q8IW41); experiment: Dundee profiling
MARK1 = MARK1 (Homo sapiens (Human), UniProt Q9P0L2); experiment: Dundee profiling
[1] = read-out: percent remaining enzymatic activity, I1, 1 μM
[2] = read-out: percent remaining enzymatic activity, I10
[3] = read-out: percent remaining enzymatic activity

Sequence of p38g MAPK (P53778 whole entry): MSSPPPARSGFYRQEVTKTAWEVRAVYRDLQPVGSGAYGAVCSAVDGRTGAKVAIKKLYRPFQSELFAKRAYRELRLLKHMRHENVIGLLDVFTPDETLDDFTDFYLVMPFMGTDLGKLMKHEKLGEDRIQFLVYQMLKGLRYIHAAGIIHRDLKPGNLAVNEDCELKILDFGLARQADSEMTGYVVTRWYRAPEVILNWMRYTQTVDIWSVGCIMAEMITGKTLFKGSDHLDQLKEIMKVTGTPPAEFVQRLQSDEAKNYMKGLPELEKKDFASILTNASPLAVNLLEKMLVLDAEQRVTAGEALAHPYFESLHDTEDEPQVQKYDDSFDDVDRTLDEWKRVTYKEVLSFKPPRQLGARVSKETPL
Sequence of JNK3 (P53779 whole entry, species assumed): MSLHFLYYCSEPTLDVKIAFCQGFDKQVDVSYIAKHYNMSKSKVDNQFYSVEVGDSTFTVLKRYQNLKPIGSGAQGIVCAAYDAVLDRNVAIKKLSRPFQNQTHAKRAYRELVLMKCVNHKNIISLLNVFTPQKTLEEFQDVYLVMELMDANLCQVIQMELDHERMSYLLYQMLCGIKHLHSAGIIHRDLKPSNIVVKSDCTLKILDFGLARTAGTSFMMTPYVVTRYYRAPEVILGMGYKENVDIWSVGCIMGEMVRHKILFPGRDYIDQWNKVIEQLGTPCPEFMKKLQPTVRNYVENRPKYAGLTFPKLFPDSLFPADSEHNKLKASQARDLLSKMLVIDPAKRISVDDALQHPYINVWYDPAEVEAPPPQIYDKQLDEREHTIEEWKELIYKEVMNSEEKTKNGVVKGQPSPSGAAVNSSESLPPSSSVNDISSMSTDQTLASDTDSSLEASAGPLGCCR
Sequence of MARK1 (Q9P0L2 whole entry, looked up, species assumed): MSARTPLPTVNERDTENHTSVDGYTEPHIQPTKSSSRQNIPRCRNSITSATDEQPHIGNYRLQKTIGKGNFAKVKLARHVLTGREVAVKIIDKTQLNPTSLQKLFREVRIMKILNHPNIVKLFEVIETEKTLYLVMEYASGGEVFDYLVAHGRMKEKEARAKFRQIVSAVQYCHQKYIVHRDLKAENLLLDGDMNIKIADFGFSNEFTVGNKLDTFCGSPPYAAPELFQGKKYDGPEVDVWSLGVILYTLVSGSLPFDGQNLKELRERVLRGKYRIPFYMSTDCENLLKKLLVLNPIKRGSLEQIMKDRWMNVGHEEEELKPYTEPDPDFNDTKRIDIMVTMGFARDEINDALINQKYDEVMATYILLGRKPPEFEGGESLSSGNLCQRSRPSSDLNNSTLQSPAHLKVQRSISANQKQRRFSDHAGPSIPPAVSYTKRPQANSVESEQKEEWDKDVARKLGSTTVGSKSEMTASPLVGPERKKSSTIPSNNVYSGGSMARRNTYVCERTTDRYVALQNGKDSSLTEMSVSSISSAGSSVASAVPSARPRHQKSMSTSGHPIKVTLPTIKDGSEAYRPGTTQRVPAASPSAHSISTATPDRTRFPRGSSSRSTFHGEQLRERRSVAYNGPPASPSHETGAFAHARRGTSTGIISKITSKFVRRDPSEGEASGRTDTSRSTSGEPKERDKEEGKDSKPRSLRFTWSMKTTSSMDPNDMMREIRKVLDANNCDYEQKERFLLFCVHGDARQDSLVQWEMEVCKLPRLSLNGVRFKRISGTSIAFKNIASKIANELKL
Sequence of p38a MAPK (Q16539 whole entry): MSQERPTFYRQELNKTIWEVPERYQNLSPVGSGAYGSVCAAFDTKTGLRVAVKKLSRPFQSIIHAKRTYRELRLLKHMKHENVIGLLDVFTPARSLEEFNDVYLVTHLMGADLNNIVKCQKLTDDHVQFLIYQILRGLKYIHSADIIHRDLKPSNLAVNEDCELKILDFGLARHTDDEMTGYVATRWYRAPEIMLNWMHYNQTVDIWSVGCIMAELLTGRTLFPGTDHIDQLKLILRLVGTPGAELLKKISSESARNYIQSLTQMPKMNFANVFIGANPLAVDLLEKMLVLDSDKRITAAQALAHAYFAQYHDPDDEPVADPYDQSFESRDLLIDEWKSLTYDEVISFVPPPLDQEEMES
Sequence of PRAK (Q8IW41 whole entry, species assumed): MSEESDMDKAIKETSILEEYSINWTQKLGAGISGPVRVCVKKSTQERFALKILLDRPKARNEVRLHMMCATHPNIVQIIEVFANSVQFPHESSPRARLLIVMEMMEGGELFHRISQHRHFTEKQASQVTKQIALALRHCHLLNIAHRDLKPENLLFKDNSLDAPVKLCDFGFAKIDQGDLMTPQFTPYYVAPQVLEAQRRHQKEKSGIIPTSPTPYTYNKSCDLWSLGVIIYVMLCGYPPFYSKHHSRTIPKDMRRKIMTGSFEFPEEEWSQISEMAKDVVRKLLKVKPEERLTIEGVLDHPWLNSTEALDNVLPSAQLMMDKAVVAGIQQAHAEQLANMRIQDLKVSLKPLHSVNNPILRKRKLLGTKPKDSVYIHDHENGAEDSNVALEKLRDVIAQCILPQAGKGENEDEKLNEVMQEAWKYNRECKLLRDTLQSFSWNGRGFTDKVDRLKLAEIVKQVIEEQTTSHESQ
Sequence of CK1δ (P48730 whole entry): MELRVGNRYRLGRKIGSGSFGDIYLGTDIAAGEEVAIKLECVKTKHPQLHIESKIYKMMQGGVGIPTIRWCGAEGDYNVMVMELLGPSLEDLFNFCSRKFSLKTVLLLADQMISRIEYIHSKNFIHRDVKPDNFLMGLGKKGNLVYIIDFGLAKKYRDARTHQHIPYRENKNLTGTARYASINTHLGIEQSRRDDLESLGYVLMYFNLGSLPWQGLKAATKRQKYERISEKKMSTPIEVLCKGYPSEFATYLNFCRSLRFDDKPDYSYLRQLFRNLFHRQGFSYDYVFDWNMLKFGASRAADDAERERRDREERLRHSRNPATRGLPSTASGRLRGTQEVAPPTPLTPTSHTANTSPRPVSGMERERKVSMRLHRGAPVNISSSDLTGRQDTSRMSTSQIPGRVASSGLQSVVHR
Sequence of HIPK2 (Q9H2X6 whole entry, looked up, species assumed): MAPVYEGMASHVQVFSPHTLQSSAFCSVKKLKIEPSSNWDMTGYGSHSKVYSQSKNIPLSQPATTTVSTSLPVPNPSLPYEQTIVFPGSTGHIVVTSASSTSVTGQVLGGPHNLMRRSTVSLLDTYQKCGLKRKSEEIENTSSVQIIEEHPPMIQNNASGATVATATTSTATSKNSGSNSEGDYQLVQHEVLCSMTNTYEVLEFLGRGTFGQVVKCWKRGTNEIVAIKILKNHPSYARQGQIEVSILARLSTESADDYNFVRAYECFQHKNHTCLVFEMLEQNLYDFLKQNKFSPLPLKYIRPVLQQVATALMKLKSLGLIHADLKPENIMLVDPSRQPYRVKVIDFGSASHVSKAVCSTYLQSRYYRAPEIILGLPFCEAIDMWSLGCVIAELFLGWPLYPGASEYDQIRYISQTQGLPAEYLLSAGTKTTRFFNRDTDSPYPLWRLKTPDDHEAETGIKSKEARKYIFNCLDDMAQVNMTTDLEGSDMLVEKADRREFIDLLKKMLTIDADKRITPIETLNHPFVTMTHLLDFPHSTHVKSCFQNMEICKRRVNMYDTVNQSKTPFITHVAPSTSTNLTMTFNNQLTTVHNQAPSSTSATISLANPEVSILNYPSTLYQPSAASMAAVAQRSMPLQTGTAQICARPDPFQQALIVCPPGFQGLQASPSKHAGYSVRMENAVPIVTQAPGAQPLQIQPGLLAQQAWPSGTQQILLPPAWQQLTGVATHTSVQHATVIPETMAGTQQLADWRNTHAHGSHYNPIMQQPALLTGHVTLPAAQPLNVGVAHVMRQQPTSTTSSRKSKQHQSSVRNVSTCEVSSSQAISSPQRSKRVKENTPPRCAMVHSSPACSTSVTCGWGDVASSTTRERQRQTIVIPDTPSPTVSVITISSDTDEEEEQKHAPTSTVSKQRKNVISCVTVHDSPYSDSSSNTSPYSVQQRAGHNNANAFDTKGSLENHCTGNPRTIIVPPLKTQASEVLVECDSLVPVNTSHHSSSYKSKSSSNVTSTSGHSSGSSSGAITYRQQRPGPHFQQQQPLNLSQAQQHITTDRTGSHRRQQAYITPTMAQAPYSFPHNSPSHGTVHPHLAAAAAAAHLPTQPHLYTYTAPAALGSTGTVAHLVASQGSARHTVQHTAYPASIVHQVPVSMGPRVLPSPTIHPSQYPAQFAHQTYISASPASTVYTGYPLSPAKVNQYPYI
Sequence of DDR2 (Q16832 22-855, species assumed): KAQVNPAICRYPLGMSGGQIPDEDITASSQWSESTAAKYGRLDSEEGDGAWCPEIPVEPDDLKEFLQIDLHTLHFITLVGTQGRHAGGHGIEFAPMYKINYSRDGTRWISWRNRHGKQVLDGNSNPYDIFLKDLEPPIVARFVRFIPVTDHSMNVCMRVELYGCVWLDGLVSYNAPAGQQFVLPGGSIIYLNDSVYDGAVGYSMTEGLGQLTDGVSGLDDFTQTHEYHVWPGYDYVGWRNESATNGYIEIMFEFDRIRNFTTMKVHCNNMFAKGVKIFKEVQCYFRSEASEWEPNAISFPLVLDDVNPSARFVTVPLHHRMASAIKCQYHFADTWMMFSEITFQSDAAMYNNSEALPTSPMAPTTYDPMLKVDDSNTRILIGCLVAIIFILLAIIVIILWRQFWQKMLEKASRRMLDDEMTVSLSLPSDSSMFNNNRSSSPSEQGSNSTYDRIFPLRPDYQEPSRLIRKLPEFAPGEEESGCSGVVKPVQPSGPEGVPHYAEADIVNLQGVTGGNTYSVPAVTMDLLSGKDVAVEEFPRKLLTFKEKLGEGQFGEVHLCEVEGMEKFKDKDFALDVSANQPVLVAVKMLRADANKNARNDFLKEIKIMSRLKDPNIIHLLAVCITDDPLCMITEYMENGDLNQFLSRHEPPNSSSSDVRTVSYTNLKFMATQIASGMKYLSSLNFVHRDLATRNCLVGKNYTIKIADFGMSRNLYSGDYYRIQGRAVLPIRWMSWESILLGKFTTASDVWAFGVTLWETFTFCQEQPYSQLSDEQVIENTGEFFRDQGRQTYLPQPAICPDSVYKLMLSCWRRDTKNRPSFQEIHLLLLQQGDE

In the case of `CNc1nc(Nc2ccc(C(=O)N3CCOCC3)cc2OC)nc2[nH]cc(Cl)c12` [Compound 18, (4-((5-chloro-4-(methylamino)-7H-pyrrolo[2,3-d]pyrimidin-2-yl)amino)-3-methoxyphenyl)(morpholino)methanone], the remaining activity at 1 µM (p38g MAPK; [1]) is reported as 116%, the remaining activity at 1 µM (p38g MAPK; [2]) is reported as 96% and the KinomeScan value (EGFR) is reported as 93. The KinomeScan value (ULK1) was 100, the KinomeScan value (EGFR (G719C)) was 91 and the “percent remaining enzymatic activity” value (p38a MAPK; I10) was 104%. The remaining activity at 1 µM (p38a MAPK; [3]) was 90%, the remaining activity at 1 µM (PKA; [1]) was 99% and the remaining activity at 1 µM (PKA; [2]) was 101%. For the same compound, the remaining activity at 1 µM (DDR2; [1]) was 98%, the remaining activity at 1 µM (DDR2; [2]) was 93% and the “percent remaining enzymatic activity” value (MAP4K3; I10) was 41%. For the same compound, the remaining activity at 1 µM (MAP4K3; [3]) was 98%, the “percent remaining enzymatic activity” value (JNK3; I10) was 9% and the remaining activity at 1 µM (JNK3; [3]) was 29%. For the same compound, the remaining activity at 1 µM (CK1δ; [1]) was 74%, the remaining activity at 1 µM (CK1δ; [2]) was 33% and the KinomeScan value (CSNK1G2) was 100. The remaining activity at 1 µM (PKBa; [1]) was 101%, the remaining activity at 1 µM (PKBa; [2]) was 105% and the remaining activity at 1 µM (DYRK1A; [1]) was 49%. For the same compound, the remaining activity at 1 µM (DYRK1A; [2]) was 8%, the remaining activity at 1 µM (HIPK2; [1]) was 84% and the remaining activity at 1 µM (HIPK2; [2]) was 43%. For the same compound, the remaining activity at 1 µM (PRAK; [1]) was 43%, the remaining activity at 1 µM (PRAK; [2]) was 6% and the remaining activity at 1 µM (MARK1; [1]) was 89%. It also gave a remaining activity at 1 µM (MARK1; [2]) of 77%.
